No end group written: not given here.

This test deals with intrinsic pathway. Nature of the test: activated partial thromboplastin time (APTT) screening coagulation assay. The note with it: phage expressing the peptide tested; APTT is a standard screening marker of the activity of the intrinsic pathway. Type of test: biochemical. The text has this:
While in vitro or animal testing are not acceptable tools for establishing the safety thus usefulness of drugs, such as anticoagulants, screening compounds for specificity towards factor XI, thus potential utility in the clinic, is an necessary intermediate step in practicing this invention. In such an effort, several FXI-specific peptides have been created using standard phage display technology. […] One example of such a phage is given here. Amino acid sequencing of the peptide expressed by this phage yields Gln-Lys-Met-Gln-His-Gly-Ile-Trp-Asn-Arg-Thr-Ala using standard technology. The phage expressing the peptide is then tested in screening coagulation assays, such as activated partial thromboplastin time (APTT) and prothrombin time (PT). […] This peptide, and other inhibitory compounds with FXI specificity, such as Gln-Gln-Val-Ala-Asn-Trp-Ser-Met-Ser-Pro-Ala, are considered only as examples of intermediate steps in identifying and preparing compounds of this invention that can exclusively reduce FXI activity. Other methods of screening exist.

In the case of “QKMQHGIWNRTA [FXI-specific peptide from phage display, tested as the phage expressing it]”, the “prolongation of APTT” value was “significant prolongation”.

The values are drawn from patent publication US20080219998A1, “Anti-Thrombotic Agents” (priority 2001, published 2008).
